From patent US7446117B2, “Cox-2 inhibiting pyridine derivatives” (Glaxo Group Limited, priority 2002, dated 2008)

Target: T1, microsomal h-COX2 (Homo sapiens, UniProt P35354)
T1 construct: made in house; host or cells: baculovirus infected SF9 cells (microsomal preparation)
T1 sequence (P35354 18-604): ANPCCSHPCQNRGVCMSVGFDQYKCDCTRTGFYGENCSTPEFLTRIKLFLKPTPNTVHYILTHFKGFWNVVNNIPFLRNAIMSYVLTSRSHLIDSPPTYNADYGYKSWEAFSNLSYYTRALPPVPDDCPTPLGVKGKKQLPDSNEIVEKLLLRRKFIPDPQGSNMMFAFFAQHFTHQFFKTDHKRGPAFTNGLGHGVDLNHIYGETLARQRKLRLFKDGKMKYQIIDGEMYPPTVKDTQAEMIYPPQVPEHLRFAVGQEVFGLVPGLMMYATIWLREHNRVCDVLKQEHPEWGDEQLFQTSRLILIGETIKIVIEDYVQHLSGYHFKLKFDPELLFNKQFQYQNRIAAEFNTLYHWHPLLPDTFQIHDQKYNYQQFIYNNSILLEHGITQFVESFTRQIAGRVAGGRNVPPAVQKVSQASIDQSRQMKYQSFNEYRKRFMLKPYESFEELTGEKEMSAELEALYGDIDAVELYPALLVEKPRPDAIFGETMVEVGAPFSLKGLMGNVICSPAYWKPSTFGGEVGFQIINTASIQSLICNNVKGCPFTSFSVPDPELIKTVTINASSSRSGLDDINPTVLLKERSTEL
Test: Microsomal assay: inhibitory activity against microsomal h-COX2
Type: biochemical
Conditions: microsomal preparation from baculovirus infected SF9 cells; 1 hour incubation with compound; 0.1 μM arachidonic acid, 10 minutes; PGE2 by EIA; read-out: IC50 values for inhibition of COX-2
Experimental: Biological Data Microsomal Assay
Inhibitory activity against microsomal h-COX2 was assessed against a microsomal preparation from baculovirus infected SF9 cells. An aliquot of microsomal preparation was thawed slowly on ice and a 1/40,000 dilution prepared from it into the assay buffer (sterile water, degassed with argon containing 100 mM HEPES (pH 7.4), 10 mM EDTA (pH7.4), 1 mM phenol, 1 mM reduced glutathione, 20 mg/ml gelatin and 0.001 mM Hematin). Once diluted the enzyme solution was then sonicated for 5 seconds (Branson sonicator, setting 4, 1 cm tip) to ensure a homogeneous suspension. 155 μl enzyme solution was then added to each well of a 96-well microtitre plate containing either 5 μl test compound (40× required test concentration) or 5 μl DMSO for controls. Plates were then mixed and incubated at room temperature for 1 hour. Following the incubation period, 40 μl of 0.5 μM arachidonic acid was added to each well to give a final concentration of 0.1 μM. Plates were then mixed and incubated for exactly 10 minutes (room temperature) prior to addition of 25 μl 1M HCl (hydrochloric acid) to each well to stop the reaction. 25 μl of 1M NaOH (sodium hydroxide) was then added to each well to neutralise the solution prior to determination of PGE2 levels by enzyme immunoassay (EIA).

Row | IC50 [nM] | Structure (SMILES)
1 | ≤ 500 | Cc1cc(NC2CCCC2)nc(-c2ccc(S(C)(=O)=O)cc2)c1 [Example 1, N-Cyclopentyl-4-methyl-6-[4-(methylsulfonyl)phenyl]pyridine-2-amine]
2 | ≤ 500 | Cc1cc(OCc2ccccc2)nc(-c2ccc(S(C)(=O)=O)cc2)c1 [Example 2, 2-Benzyloxy-4-methyl-6-[4-(methylsulfonyl)phenyl]pyridine]
3 | ≤ 500 | Cc1cc(-c2ccc(S(C)(=O)=O)cc2)nc(N(C)Cc2ccccc2)c1 [Example 3, N-Benzyl-N-methyl-4-methyl-6-[4-(methylsulfonyl)phenyl]pyridine-2-amine]
4 | ≤ 500 | Cc1cc(NCc2ccc(Cl)cc2)nc(-c2ccc(S(C)(=O)=O)cc2)c1 [Example 4]
5 | ≤ 500 | CN(Cc1ccccc1)c1cc(C(F)(F)F)cc(-c2ccc(S(C)(=O)=O)cc2)n1 [Example 5]
6 | ≤ 500 | CS(=O)(=O)c1ccc(-c2cc(C(F)(F)F)cc(NCc3ccco3)n2)cc1 [Example 6]
7 | ≤ 500 | Cc1cc(NCc2ccccc2)nc(-c2ccc(S(C)(=O)=O)cc2)c1 [Example 7]
8 | ≤ 500 | CS(=O)(=O)c1ccc(-c2cc(C(F)(F)F)cc(NCC3CCCCC3)n2)cc1 [Example 8]
9 | ≤ 500 | COc1ccc(Nc2cc(C)cc(-c3ccc(S(C)(=O)=O)cc3)n2)cc1 [Example 9]
10 | ≤ 500 | Cc1cc(OCC(C)C)nc(-c2ccc(S(C)(=O)=O)cc2)c1 [Example 10]
11 | ≤ 500 | Cc1cc(Oc2cccnc2)nc(-c2ccc(S(C)(=O)=O)cc2)c1 [Example 11]
12 | ≤ 500 | C=CCNc1cc(C(F)(F)F)cc(-c2ccc(S(C)(=O)=O)cc2)n1 [Example 12]
13 | ≤ 500 | Cc1cc(Nc2ccccc2Cl)nc(-c2ccc(S(C)(=O)=O)cc2)c1 [Example 13]
14 | ≤ 500 | Cc1cc(NCc2cc(F)cc(F)c2)nc(-c2ccc(S(C)(=O)=O)cc2)c1 [Example 14]
15 | ≤ 500 | Cc1cc(NCc2cccnc2)nc(-c2ccc(S(C)(=O)=O)cc2)c1 [Example 15]
16 | ≤ 500 | COc1ccc(Nc2cc(C(F)(F)F)cc(-c3ccc(S(C)(=O)=O)cc3)n2)cc1 [Example 16]
17 | ≤ 500 | Cc1cc(NC2CCCCC2)nc(-c2ccc(S(C)(=O)=O)cc2)c1 [Example 17]
18 | ≤ 500 | CCCCNc1cc(C(F)(F)F)cc(-c2ccc(S(C)(=O)=O)cc2)n1 [Example 18]
19 | ≤ 500 | CC(C)CNc1cc(C(F)(F)F)cc(-c2ccc(S(C)(=O)=O)cc2)n1 [Example 19]
20 | ≤ 500 | COc1ccc(CNc2cc(C)cc(-c3ccc(S(C)(=O)=O)cc3)n2)cc1 [Example 20]
21 | ≤ 500 | Cc1cc(NCc2ccc(F)cc2)nc(-c2ccc(S(C)(=O)=O)cc2)c1 [Example 21]

Row | IC50 [nM] | Structure (SMILES)
22 | ≤ 500 | Cc1ccc(CNc2cc(C(F)(F)F)cc(-c3ccc(S(C)(=O)=O)cc3)n2)o1 [Example 22]
23 | ≤ 500 | CCCCNc1cc(C)cc(-c2ccc(S(C)(=O)=O)cc2)n1 [Example 23]
24 | ≤ 500 | Cc1cc(NCc2ccco2)nc(-c2ccc(S(C)(=O)=O)cc2)c1 [Example 24]
25 | ≤ 500 | Cc1ccc(CNc2cc(C)cc(-c3ccc(S(C)(=O)=O)cc3)n2)cc1 [Example 25]
26 | ≤ 500 | CS(=O)(=O)c1ccc(-c2cc(C(F)(F)F)cc(NC3CCCC3)n2)cc1 [Example 26]
27 | ≤ 500 | Cc1cc(NCc2ccncc2)nc(-c2ccc(S(C)(=O)=O)cc2)c1 [Example 27]
28 | ≤ 500 | Cc1cc(NCc2ccccn2)nc(-c2ccc(S(C)(=O)=O)cc2)c1 [Example 28]
29 | ≤ 500 | CCOc1ccc(CNc2cc(C)cc(-c3ccc(S(C)(=O)=O)cc3)n2)cc1 [Example 30]
30 | ≤ 500 | Cc1cc(NCC(C)C)nc(-c2ccc(S(C)(=O)=O)cc2)c1 [Example 31]
31 | ≤ 500 | Cc1cc(Nc2ccc(F)cc2)nc(-c2ccc(S(C)(=O)=O)cc2)c1 [Example 43]
32 | ≤ 500 | Cc1cc(NCc2cccs2)nc(-c2ccc(S(C)(=O)=O)cc2)c1 [Example 44]
33 | ≤ 500 | CCc1cc(-c2ccc(S(C)(=O)=O)cc2)nc(N(C)Cc2ccccc2)c1 [Example 45]
34 | ≤ 500 | CCc1cc(NCC2CCOCC2)nc(-c2ccc(S(C)(=O)=O)cc2)c1 [Example 46]
35 | ≤ 500 | CCc1cc(NCC(C)C)nc(-c2ccc(S(C)(=O)=O)cc2)c1 [Example 47]
36 | ≤ 500 | Cc1ccc(CNc2cc(C(F)(F)F)cc(-c3ccc(S(C)(=O)=O)cc3)n2)cc1 [Example 48]
37 | ≤ 500 | Cc1ccccc1CNc1cc(C(F)(F)F)cc(-c2ccc(S(C)(=O)=O)cc2)n1 [Example 49]
38 | ≤ 500 | CS(=O)(=O)c1ccc(-c2cc(C(F)(F)F)cc(NCc3ccccc3Cl)n2)cc1 [Example 50]
39 | ≤ 500 | Cc1cnc(CNc2cc(C(F)(F)F)cc(-c3ccc(S(C)(=O)=O)cc3)n2)cn1 [Example 51]
40 | ≤ 500 | C[C@H](Nc1cc(C(F)(F)F)cc(-c2ccc(S(C)(=O)=O)cc2)n1)c1ccccc1 [Example 52]
41 | ≤ 500 | C[C@@H](Nc1cc(C(F)(F)F)cc(-c2ccc(S(C)(=O)=O)cc2)n1)c1ccccc1 [Example 53]
42 | ≤ 500 | CS(=O)(=O)c1ccc(-c2cc(C(F)(F)F)cc(NC3CCCCC3)n2)cc1 [Example 54, N-cyclohexyl-4-(trifluoromethyl)-6-[4-(methylsulfonyl)phenyl]pyridine-2-amine]

Row | IC50 [nM] | Structure (SMILES)
43 | ≤ 500 | COc1ccc(CNc2cc(C(F)(F)F)cc(-c3ccc(S(C)(=O)=O)cc3)n2)cc1 [Example 55]
44 | ≤ 500 | Cc1cc(Nc2ccc(C)nc2)nc(-c2ccc(S(C)(=O)=O)cc2)c1 [Example 56]
45 | ≤ 500 | Cc1ccc(-c2ccc(S(C)(=O)=O)cc2)nc1NCc1ccccc1 [Example 57]
46 | ≤ 500 | Cc1cc(-c2ccc(S(C)(=O)=O)cc2)nc(N(C)Cc2ccccc2)c1C [Example 58]
47 | ≤ 500 | Cc1cc(-c2ccc(S(C)(=O)=O)cc2)nc(NCc2ccccc2)c1C [Example 59]
48 | ≤ 500 | Cc1cc(-c2ccc(S(C)(=O)=O)cc2)nc(NCC(C)C)c1C [Example 60]
49 | ≤ 500 | CN(Cc1ccccc1)c1cccc(-c2ccc(S(C)(=O)=O)cc2)n1 [Example 61]
50 | ≤ 500 | Cc1cc(-c2ccc(S(C)(=O)=O)cn2)nc(N(C)Cc2ccccc2)c1 [Example 62]
51 | ≤ 500 | Cc1cc(-c2ccc(S(C)(=O)=O)cc2)nc(N2CCCCC2)c1C [Example 66]
52 | ≤ 500 | Cc1cc(NCc2ccccc2)nc(-c2ccc(S(C)(=O)=O)c(F)c2)c1 [Example 67]
53 | ≤ 500 | Cc1cc(-c2ccc(S(C)(=O)=O)cc2)nc(N(C)Cc2cccc(C)n2)c1 [Example 68]
54 | ≤ 500 | CCc1cc(NCc2ccco2)nc(-c2ccc(S(C)(=O)=O)cc2)c1 [Example 69]
55 | ≤ 500 | COc1ccc(Nc2cc(C)cc(-c3ccc(S(C)(=O)=O)cn3)n2)cc1 [Example 70]
56 | ≤ 500 | CCC(CC)Nc1cc(C)cc(-c2ccc(S(C)(=O)=O)cc2)n1 [Example 74]
57 | ≤ 500 | CS(=O)(=O)c1ccc(-c2cccc(NCc3ccccc3)n2)cc1 [Example 75]
58 | ≤ 500 | Cc1cc(NCc2ncc[nH]2)nc(-c2ccc(S(C)(=O)=O)cc2)c1 [Example 76]
59 | ≤ 500 | Cc1cc(NCc2nccn2C)nc(-c2ccc(S(C)(=O)=O)cc2)c1 [Example 80]
60 | ≤ 500 | Cc1cc(NCc2c[nH]nc2C)nc(-c2ccc(S(C)(=O)=O)cc2)c1 [Example 81]
61 | ≤ 500 | Cc1cc(NCc2ccn(C)n2)nc(-c2ccc(S(C)(=O)=O)cc2)c1 [Example 82]
